# Data: patent publication US20130245081A1, “Compositions and Methods for Treating Amyotrophic Lateral Sclerosis” (priority 2009, published 2013)
# Test: clinical
# Details: for AUC(0-t) / AUC(0-inf) / Cmax / Tmax / Vd/F / half-life / CL renal: both, human, oral; for AUC(0-t) / AUC(0-inf) / Cmax / Tmax / Vd/F / half-life: plasma; for AUC(0-t): AUC0-t; for AUC(0-inf): AUCinf; for Vd/F: Vz/F; for CL renal: urine and plasma, CLr
# Excerpt: A total of 54 subjects (30 subjects in Study CL001 and 24 subjects in Study CL002) were enrolled. Healthy, non-smoking, male and female subjects 30 to 60 years of age, inclusive, with normal or clinically acceptable physical examination and electrocardiogram (ECG) findings, systolic (90 to 140 mmHg) and diastolic (50 to 90 mmHg) blood pressure, and resting heart rate (50 to 100 bpm) who were willing to provide signed, written informed consent were eligible for enrollment. Female volunteers had to be of non-childbearing potential with negative pregnancy test results at screening and clinic check-in. Subjects with any history of neurodegenerative illnesses were excluded. The use of over-the-counter medications within 7 days prior to enrollment or prescription medications within 12 weeks prior to enrollment was prohibited.
# In the first study, subjects were enrolled in 3 successive double-blind, placebo-controlled panels of 8 subjects (n=6 active, n=2 placebo per panel).
# Matching placebo capsules contained equivalent weights of microcrystalline cellulose. Capsules were administered orally with water. […] Subjects in the fasted cohorts were required to fast overnight for a minimum of 10 hours before dose administration. Subjects in the food cohort were required to fast overnight for a minimum of 10 hours before dose administration, with exception of the high fat/high calorie meal that was administered 30 minutes prior to drug administration. […] All available safety data were reviewed under blinded conditions to monitor for serious safety or tolerability events prior to proceeding with dose escalations.
# Blood samples were collected into a 10 mL dipotassium ethylenediaminetetraacetic acid (K2-EDTA) Vacutainer® via an indwelling peripheral intravenous cannula or by direct venipuncture. Within 15 minutes of collection, the samples were centrifuged at 3000 rpm for 10 minutes at 4° C. After centrifugation, the plasma was divided into 2 aliquots of at least 1.5 mL each, placed into polypropylene containers, frozen, and stored at −20° C. until they were shipped for analysis.
# Urine collected in each interval was well mixed, the pH was recorded, the total volume (or the weight and specific gravity) was recorded, and 2 aliquots of 20 mL each were collected into polypropylene containers and stored at −20° C. until they were shipped for analysis. All plasma and urine sample were shipped frozen on dry ice in 2 separate shipments per group (1 set of aliquots per shipment) to Eurofins AvTech Laboratories Inc. (Kalamazoo, Mich.) for bioanalytical analysis.
# Plasma and urine concentrations were measured using validated liquid chromatography/mass spectrometry/mass spectrometry (LC/MS/MS) methods. […] The analytical procedure for analysis of plasma samples used a 100 μL aliquot of K2EDTA human plasma. The plasma sample was spiked with 20 μL of working internal standard solution and 20 μL of type 1 water for subject samples and QCs and 20 μL of the appropriate intermediate standard solution for standards. One hundred microliters ([…]) of 50% ammonium hydroxide solution was added to the sample followed by vortex mixing. One milliliter (1 mL) of tertbutyl methyl ether was then added and the sample was vortexed to extract the analyte and internal standard into the organic layer, followed by separation using flash freezing. The organic layer was decanted, evaporated to dryness, and the sample was reconstituted with 0.5 mL of reconstitution solution (0.1% ammonium hydroxide in 50:50 methanol; type 1 water (v/v/v)). A 10 μL aliquot of this reconstituted sample was injected into an LC/MS/MS system for analysis. […] The analytical procedure for analysis of urine samples was essentially similar to the plasma procedure.
compound,measurement,setting,value
"CCCN[C@@H]1CCc2nc(N)sc2C1 [dexpramipexole, (6R)-2-amino-4,5,6,7-tetrahydro-6-(propylamino)benzothiazole]",eliminated in urine as unchanged parent drug,both Phase 1 studies,84-90 % of dose
same,AUC(0-t),"50 mg, single 50 mg, fasted",989 ± 295 ng·h/mL
same,AUC(0-inf),"50 mg, single 50 mg, fasted",1250 ± 347 ng·h/mL
same,Cmax,"50 mg, single 50 mg, fasted",125 ± 22 ng/mL
same,Tmax,"50 mg, Tmax (median), single 50 mg, fasted",2.04 h
same,Vd/F,"50 mg, single 50 mg, fasted",294 ± 46.2 L
same,AUC(0-t),"150 mg, single 150 mg, fasted",3360 ± 780 ng·h/mL
same,AUC(0-t),"150 mg, single 150 mg, fed",3080 ± 934 ng·h/mL
same,AUC(0-inf),"150 mg, single 150 mg, fasted",3780 ± 1010 ng·h/mL
same,AUC(0-inf),"150 mg, single 150 mg, fed",3380 ± 957 ng·h/mL
same,Cmax,"150 mg, single 150 mg, fasted",360 ± 60.4 ng/mL
same,Cmax,"150 mg, single 150 mg, fed",315 ± 61.6 ng/mL
same,Tmax,"150 mg, Tmax (median), single 150 mg, fasted",2.04 h
same,Tmax,"150 mg, Tmax (median), single 150 mg, fed",2.58 h
same,Vd/F,"150 mg, single 150 mg, fasted",311 ± 68.4 L
same,Vd/F,"150 mg, single 150 mg, fed",308 ± 55.9 L
same,half-life,"150 mg, t1/2, single 150 mg, fed",6.33 ± 1.49 h
same,AUC(0-t),"300 mg, single 300 mg, fasted",8340 ± 3200 ng·h/mL
same,AUC(0-inf),"300 mg, single 300 mg, fasted",8620 ± 3260 ng·h/mL
same,Cmax,"300 mg, single 300 mg, fasted",781 ± 158 ng/mL
same,Tmax,"300 mg, Tmax (median), single 300 mg, fasted",1.98 h
same,Vd/F,"300 mg, single 300 mg, fasted",258 ± 73.5 L
same,half-life,"300 mg, elimination t1/2, single 50, 150, 300 mg, fasted",6.4 to 6.96 h
same,Tmax,"Tmax, range over both Phase 1 studies, single and multiple doses",1.75 to 2.58 h
same,half-life,"t1/2, range over both Phase 1 studies, fasted conditions",6.4 to 8.05 h
same,CL renal,"50 mg, single 50 mg, fasted",628 ± 149 mL/min
same,CL renal,"150 mg, single 150 mg, fasted",385 mL/min
same,CL renal,"150 mg, single 150 mg, fed",559 ± 140 mL/min
same,CL renal,"300 mg, single 300 mg, fasted",441 ± 159 mL/min
same,time of maximum concentrations after dosing,oral administration,2 h
same,CL/F,"single 50 mg, fasted",527 ± 135 mL/min
same,Fe,"single 50 mg, fasted",94.7 ± 13.9 % dose
same,Ue,"single 50 mg, fasted",35.3 ± 5.19 mg
same,λz,"single 50 mg, fasted",0.1064 ± 0.0171 h⁻¹
same,CL/F,"single 150 mg, fasted",524 ± 146 mL/min
same,Fe,"single 150 mg, fasted",66.9 ± 44.8 % dose
same,Ue,"single 150 mg, fasted",74.8 ± 50.17 mg
same,λz,"single 150 mg, fasted",0.1001 ± 0.0087 h⁻¹
same,CL/F,"single 150 mg, fed",581 ± 127 mL/min
same,Fe,"single 150 mg, fed",86.6 ± 4.21 % dose
same,Ue,"single 150 mg, fed",96.9 ± 4.71 mg
same,λz,"single 150 mg, fed",0.1144 ± 0.0259 h⁻¹
same,CL/F,"single 300 mg, fasted",492 ± 194 mL/min
same,Fe,"single 300 mg, fasted",88.3 ± 12.5 % dose
same,Ue,"single 300 mg, fasted",198 ± 28.0 mg
same,λz,"single 300 mg, fasted",0.1151 ± 0.0309 h⁻¹
same,dose recovered as unchanged parent drug in the urine,single doses,Approximately 90%
